{"source": "paper PMC9794833", "about": "“Ligand recognition and activation of neuromedin U receptor 2” (Nature Communications, 2022)", "key": {"[1]": {"target": "T1, NMU2 (Homo sapiens, UniProt Q9GZQ4)", "T1 construct": "HA signal peptide (N); expressed in transfected cells; host or cells: HEK 293F", "test": "TRUPATH Gαi1βγ biosensor assay, WT NMU2", "type": "cell-based", "settings": "WT; for CPN 267–induced G protein activation of NMU2: single replicates", "procedure": "(§1) The plasmids of Gαi1, Gβ3, and Gγ9 used for the TRUPATH assay were purchased from Addgene (TRUPATH Kit, #1000000163). NMU2 constructs of WT and mutants were constructed into a PTT5 vector (Invitrogen) with an N-terminal HA signal peptide followed by a Flag tag. HEK 293F cells were transiently transfected with WT or mutants of NMU2, Gαi1, Gβ3, and Gγ9 at an […] ratio of 4:1:1:1 with a total of 3500 ng plasmid DNA using a transfection reagent (PEI MAX 2000, Polysciences) and cultivated at 37 °C with 5 % CO2. Cells were collected after 48-h transfection. The expression level of the receptor was measured by incubating 10 μl cells with 15 μl TBS buffer supplemented with 4% bovine serum albumin, 20% (v/v) viability staining solution7-AAD (Invitrogen, Cat#00-6993-50), and ANTI-FLAG M2-FITC antibody (Sigma, F4049; 1:100 diluted by TBS) at 4 °C for 20 min. After incubation, 175 μl TBS buffer was added, and the fluorescence signal on the cell surface was detected by an FCM (flow cytometry) reader (Millipore). The cells were diluted with 1× HBSS (Hank’s balanced salt solution) balanced buffer supplemented with 25 mM HEPES, pH 7.4, and seeded onto the 96-well opaque cell culture plates (Beyotime) at a density of 18,000 cells per well by 60 μl. Freshly prepared 50 μM coelenterazine 400a (Nanolight Technologies) was added into the well by 10 μl. After a 5 min equilibration time in the darkness, plates were then read in a Synerg^TM H1 microplate reader (BioTek) with excitation at 395 nm and emission at 410 and 515 nm by serially three times. Then, 30 μl of 3.3× agonists were added into the wells with a gradient final concentration from 10^−4–10^−13 M. Plates were read immediately again by serially five times. Data were processed and analyzed following the method in the literature by using GraphPad Prism 8.0."}, "[2]": {"target": "T2, NMU2 H43E (Homo sapiens, UniProt Q9GZQ4, H43E)", "T2 construct": "HA signal peptide (N); expressed in transfected cells; host or cells: HEK 293F", "T2 sequence (Q9GZQ4 whole entry H43E)": "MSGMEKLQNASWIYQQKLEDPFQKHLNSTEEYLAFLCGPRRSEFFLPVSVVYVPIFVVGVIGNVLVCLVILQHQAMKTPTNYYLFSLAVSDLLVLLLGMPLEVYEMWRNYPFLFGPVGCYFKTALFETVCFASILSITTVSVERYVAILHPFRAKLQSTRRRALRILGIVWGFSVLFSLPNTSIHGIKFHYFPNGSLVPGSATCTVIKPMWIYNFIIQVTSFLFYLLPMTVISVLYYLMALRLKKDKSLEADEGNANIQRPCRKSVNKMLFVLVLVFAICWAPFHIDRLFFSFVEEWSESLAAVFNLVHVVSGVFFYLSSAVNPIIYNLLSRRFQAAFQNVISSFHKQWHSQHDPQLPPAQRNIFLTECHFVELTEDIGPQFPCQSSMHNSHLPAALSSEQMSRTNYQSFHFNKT", "test": "TRUPATH assay, NMU2 mutant H43E", "type": "cell-based", "settings": "for increase of Emax: H43E vs WT, TRUPATH; for CPN 267–induced G protein activation of NMU2: single replicates", "procedure": "as §1"}, "[3]": {"target": "T3, NMU2 A302H (Homo sapiens, UniProt Q9GZQ4, A302H)", "T3 construct": "HA signal peptide (N); expressed in transfected cells; host or cells: HEK 293F", "T3 sequence (Q9GZQ4 whole entry A302H)": "as the sequence (Q9GZQ4 whole entry H43E) above, with E43H, A302H counted along it", "test": "TRUPATH assay, NMU2 mutant A302H", "type": "cell-based", "settings": "Log [CPN 267] M -13", "procedure": "as §1"}, "[4]": {"target": "T4, NMU2 N306Q (Homo sapiens, UniProt Q9GZQ4, N306Q)", "T4 construct": "HA signal peptide (N); expressed in transfected cells; host or cells: HEK 293F", "T4 sequence (Q9GZQ4 whole entry N306Q)": "as the sequence (Q9GZQ4 whole entry H43E) above, with E43H, N306Q counted along it", "test": "TRUPATH assay, NMU2 mutant N306Q", "type": "cell-based", "procedure": "as §1"}, "[5]": {"tested_on": "NMU1", "design": "method as in PMID 24999562, PMID 25815150, PMID 28548497", "settings": "cited from earlier work"}}, "note": "Several values for one entry are separate records, joined by “and”; a condition that tells them apart may be missing. Equal values may be shown once. Where a SMILES comes first, the peptide text is derived from it. [ ]: non-standard residue; d: D form. The star is where a group is joined. αMeW = C[C@](N)(Cc1c[nH]c2ccccc12)C(=O)O; Acetyl(2-thienyl) = O=C(Cc1cccs1)*", "data": [{"compound": "C[C@@](Cc1c[nH]c2ccccc12)(NC(=O)[C@H](Cc1c[nH]c2ccccc12)NC(=O)Cc1cccs1)C(=O)N[C@@H](CCCNC(=N)N)C(=O)N1CCC[C@H]1C(=O)N[C@@H](CCCNC(=N)N)C(=O)N[C@@H](CC(N)=O)C(N)=O", "note": "[CPN 267] ({Acetyl(2-thienyl)}-W[αMeW]RPRN-NH2; N-terminus assumed)", "values": [{"measurement": "EC50 ratio EC50(mutant)/EC50(WT)", "setting": "[1]", "result": 1}, {"measurement": "CPN 267–induced G protein activation of NMU2", "setting": "[1]; Log [CPN 267] M -5", "result": "-0.03587 and 0.007188 and -0.01399 and -0.02335"}, {"measurement": "CPN 267–induced G protein activation of NMU2", "setting": "[1]; Log [CPN 267] M -6", "result": "-0.02292 and -0.01831 and -0.0188 and -0.02168 and -0.03547 and -0.01761 and -0.003911 and -0.0252 and -0.02032"}, {"measurement": "CPN 267–induced G protein activation of NMU2", "setting": "[1]; Log [CPN 267] M -7", "result": "-0.006001 and -0.01343 and -0.0256 and -0.004694 and 0.01387 and -0.02539 and 0.01253 and -0.01403 and -0.001793"}, {"measurement": "CPN 267–induced G protein activation of NMU2", "setting": "[1]; Log [CPN 267] M -8", "result": "0.003495 and -0.002501 and 0.007246 and 0.0002105 and -0.01007 and 0.01037 and -0.008456 and 0.001798"}, {"measurement": "CPN 267–induced G protein activation of NMU2", "setting": "[1]; Log [CPN 267] M -9", "result": "-0.002278 and 0.02355 and -0.003166 and -0.00428 and 0.01286 and -0.01712 and 0.00907 and -0.02718 and 0.02569"}, {"measurement": "CPN 267–induced G protein activation of NMU2", "setting": "[1]; Log [CPN 267] M -10", "result": "0.01327 and -0.00722 and 0.003132 and -0.01489 and -0.004805 and 0.01086 and 0.01655 and -0.01176"}, {"measurement": "CPN 267–induced G protein activation of NMU2", "setting": "[1]; Log [CPN 267] M -11", "result": "0.01288 and -0.01868 and -0.005647 and 0.02201 and -0.02258 and -0.03283 and 0 (3×)"}, {"measurement": "CPN 267–induced G protein activation of NMU2", "setting": "[1]; Log [CPN 267] M -12", "result": "0.001564 and -0.001695 and 0.03559 and -0.01351 and 0.02492 and 0"}, {"measurement": "CPN 267 dose-response point on NMU2 (TRUPATH, raw signal)", "setting": "[1]; Log [CPN 267] M -13", "result": 0}, {"measurement": "CPN 267–induced G protein activation of NMU2", "setting": "[1]; Log [CPN 267] M -13", "result": 0}, {"measurement": "EC50 ratio EC50(mutant)/EC50(WT)", "setting": "[2]; H43E", "result": 2}, {"measurement": "increase of Emax", "setting": "[2]", "result": "twofold"}, {"measurement": "increase of Emax", "setting": "[2]; listed as CPN267", "result": 2, "unit": "fold"}, {"measurement": "CPN 267 dose-response point on NMU2 (TRUPATH, raw signal)", "setting": "[2]; H43E, Log [CPN 267] M -4", "result": -0.04819}, {"measurement": "CPN 267–induced G protein activation of NMU2", "setting": "[2]; H43E, Log [CPN 267] M -4", "result": -0.04819}, {"measurement": "CPN 267–induced G protein activation of NMU2", "setting": "[2]; H43E, Log [CPN 267] M -5", "result": "-0.05461 and -0.04902"}, {"measurement": "CPN 267–induced G protein activation of NMU2", "setting": "[2]; H43E, Log [CPN 267] M -6", "result": "-0.04442 and -0.04638 and -0.03015"}, {"measurement": "CPN 267–induced G protein activation of NMU2", "setting": "[2]; H43E, Log [CPN 267] M -7", "result": "-0.01102 and -0.01529 and -0.01284"}, {"measurement": "CPN 267–induced G protein activation of NMU2", "setting": "[2]; H43E, Log [CPN 267] M -8", "result": "0.004556 and -0.024 and -0.02479"}, {"measurement": "CPN 267–induced G protein activation of NMU2", "setting": "[2]; H43E, Log [CPN 267] M -9", "result": "0.01023 and -0.003075 and 0.003569"}, {"measurement": "CPN 267–induced G protein activation of NMU2", "setting": "[2]; H43E, Log [CPN 267] M -10", "result": "0.0005609 and -0.01099 and -0.03027"}, {"measurement": "CPN 267–induced G protein activation of NMU2", "setting": "[2]; H43E, Log [CPN 267] M -11", "result": "0.0192 and 0.004402 and 0"}, {"measurement": "CPN 267–induced G protein activation of NMU2", "setting": "[2]; H43E, Log [CPN 267] M -12", "result": "0.009217 and 0"}, {"measurement": "CPN 267 dose-response point on NMU2 (TRUPATH, raw signal)", "setting": "[2]; H43E, Log [CPN 267] M -13", "result": 0}, {"measurement": "CPN 267–induced G protein activation of NMU2", "setting": "[2]; H43E, Log [CPN 267] M -13", "result": 0}, {"measurement": "CPN 267 dose-response point on NMU2 (TRUPATH, raw signal)", "setting": "[3]", "result": 0}, {"measurement": "EC50 ratio EC50(mutant)/EC50(WT)", "setting": "[4]", "result": 0.12}, {"measurement": "CPN 267–induced G protein activation of NMU2", "setting": "[4]; Log [CPN 267] M -4, single replicates", "result": "-0.07238 and -0.04006 and -0.03184"}, {"measurement": "CPN 267–induced G protein activation of NMU2", "setting": "[4]; Log [CPN 267] M -5, single replicates", "result": "-0.01962 and -0.06076 and -0.0468 and -0.06887"}, {"measurement": "CPN 267–induced G protein activation of NMU2", "setting": "[4]; Log [CPN 267] M -6, single replicates", "result": "-0.04834 and -0.04745"}, {"measurement": "CPN 267 dose-response point on NMU2 (TRUPATH, raw signal)", "setting": "[4]; Log [CPN 267] M -13", "result": 0}, {"measurement": "enhanced potency compared to the WT receptor", "setting": "[4]; TRUPATH", "result": "about 8 fold"}, {"measurement": "selectivity over NMU2", "setting": "[5]; NMU1 over NMU2", "result": 1000, "unit": "fold"}, {"measurement": "EC50", "setting": "[5]; agonistic activity for NMU1", "result": 0.25, "unit": "nM"}]}]}
